Details of this data set: Initial absorbance (@600 nm): dose or concentration left out as unconfirmed. The text has this: The final criteria for the claimed composition is the ability for the dry product to redissolve into a soluble/colloidal water-based solution at an example concentration of 10 g/L. Before redissolving in water, the dry product is ground into a powder using any mechanical grinding/milling/pulverizing methods, in this case a mortar and pestle.

With paramylon [Sample A], the “Absorbance at 60 min/Initial absorbance” value worked out at 0.535, the “Initial absorbance (@600 nm)” value stood at 1.950 and the “Solubility as defined by the absorbance method (soluble if the decrease is not more than 25% after 60 minutes)” value is “NOT SOLUBLE”.

These data come from US20210253747A1, “COMPOSITIONS OF SOLUBLE BETA GLUCAN AND RELATED METHODS” (KEMIN INDUSTRIES, INC., priority 2020, published 2021).
